According to patent US10105410B2, “Heparanase inhibitory peptides and use thereof for treating clinical pathologies” (RAMBAM MED-TECH LTD., priority 2014, dated 2018):

B1: heparanase: Single chain GS3 heparanase construct comprising the 8 and 50 kDa subunits, purified from baculovirus-infected cells (protein)
chain: QDVVDLDFFTQEPLHLVSPSFLSVTIDANLATDPRFLILLGSPKLRTLARGLSPAYLRFGGTKTDFLIFDPKKESTFEERSYWQSQVNQDICKYGSIPPDVEEKLRLEWPYQEQLLLREHYQKKFKNSTYSRSSVDVLYTFANCSGLDLIFGLNALLRTADLQWNSSNAQLLLDYCSSKGYNISWELGNEPNSFLKKADIFINGSQLGEDFIQLHKLLRKSTFKNAKLYGPDVGQPRRKTAKMLKSFLKAGGEVIDSVTWHHYYLNGRTATKEDFLNPDVLDIFISSVQKVFQVVESTRPGKKVWLGETSSAYGGGAPLLSDTFAAGFMWLDKLGLSARMGIEVVMRQVFFGAGNYHLVDENFDPLPDYWLSLLFKKLVGTKVLMASVQGSKRRKLRVYLHCTNTDNPRYKEGDLTLYAINLHNVTKYLRLPYPFSNKQVDKYLLRPLGPHGLLSKSVQLNGLTLKMVDDQTLPPLMEKPLRPGSSLGLPAFSYSFFVIRNAKVAACI

What was measured:
[1] = tested on: arterial thrombus in the carotid artery; assay: Carotid artery 90% stenosis arterial thrombosis, MSB staining; format: in vivo, mice; conditions: single s.c. injection, 2 mg/kg; 24 hours after 90% stenosis
Method: In a complimentary experiment, mice returned to normal activity after being subjected to stenosis of 90% of the carotid artery. 24 hours later mice were sacrificed. Sections of the carotid artery were analyzed by MSB (Martin, Scarlet, Blue) staining. In the treatment group, following a single s.c. injection of the peptides, almost no fibrin (thrombus) was formed, while in the control group large arterial thrombus was observed. The results are exemplified in FIG. 6B for a control mouse (left panel) and a mouse treated with 2 mg/kg of the peptide set forth in SEQ ID NO: 4 (right panel).

IVC thrombus = assay: Inferior vena cava (IVC) thrombosis model; format: in vivo, mice; conditions: 2 mg/kg s.c. immediately before IVC exposure; no heparanase injected
Method: A large thrombus located distal to the IVC ligation (FIG. 6A, panel I) and after IVC was harvested (FIG. 6A, panel II), was observed. This observation was verified by H&E staining (FIG. 6A, panel III, ×10; FIG. 6A, panel IV, ×100). In subsequent experiments, peptides 3, 4 and 5 were introduced subcutaneously, at a dose of 2 mg/kg, immediately before the IVC exposure. Heparanase was not injected in this line of experiments. Each experimental group included 5 mice. The IVC was re-exposed (FIG. 6A, panel V) and then dissected (FIG. 6A, panel VI). Note that only engorged blood was present and thrombus distal to the IVC ligation was absent. This observation was verified by H&E staining (FIG. 6A, panel VII, ×10; FIG. 6A, panel VIII, ×100). […] Images were visualized through a 0.82 MDC objective lens, captured with a Nikon […] digital camera (Nikon, Tokyo, Japan), and processed with Adobe Photoshop software (Adobe Systems, San Jose, Calif.).

[2] = tested on: B16 mouse melanoma tumors; assay: Tumor vascularization, MSB stained tumor sections; format: in vivo, mice; conditions: MSB staining
[3] = tested on: procoagulant effect of heparanase; assay: Heparanase-induced coagulation activation in ICR mice, plasma TAT ELISA; format: in vivo; conditions: heparanase 0.5 mg/kg i.p.; peptide 1 or 2 mg/kg s.c. after 30 min; blood after 4 hours
Method: (§1) Thrombin-antithrombin complex (TAT) complex was evaluated according to the manufacturer recommendations by Enzygnost® TAT micro ELISA purchased from Siemens (Marburg, Germany). D-dimer assay was performed on the STA-R evolution analyzer (Diagnostica Stago) using recombinant STA-LIATEST D-DI kit (Diagnostica Stago).
Heparanase (Hepa) was injected intra-peritoneal to ICR mice at a dose of 0.5 mg/kg. After 30 min. peptides corresponding to SEQ ID NOs: 2-5 and 7 were injected at a dose of 1 mg/kg (dashed fill) or 2 mg/kg (solid fill) subcutaneously between the shoulders, into the loose skin over the neck. Blood was drawn after 4 hours, and the plasma was analyzed by ELISA for thrombin-antithrombin (TAT) levels.

coagulation activation = assay: Intra-peritoneal heparanase injection to ICR mice, plasma TAT, D-Dimer, IL-6; format: in vivo; conditions: 0.5 mg/kg i.p.; blood after 4 hours
Method: as §1
Material and method used as in Example 1. Heparanase (Hepa) was injected intra-peritoneal at a dose of 0.5 mg/kg to ICR mice. After 4 hours blood was drawn and the plasma was studied by ELISA to thrombin-antithrombin complex (TAT), D-Dimer as markers of coagulation activation and IL-6 as marker of sepsis severity. Please note that when compared with the control group (PBS) heparanase (Hepa) increased the levels of TAT and D-Dimer in a similar magnitude to that of LPS injected at a dose of 5 mg/kg that cause a moderate sepsis (FIG. 1A, B).

Row | Molecule | clot formation / thrombus distal to the IVC ligation (IVC thrombus) | procoagulant effect of heparanase (plasma TAT levels) [3] | further results
1 | AEICLLPLDYGPCR [SEQ ID NO: 4, peptide derived from TFPI-2] | absent |  | fibrin (thrombus) formation in carotid artery [1]: early thrombus; tumor vascularization [2]: little to null vascularization
2 | ICLLPLDYGPCRAL [SEQ ID NO: 3, peptide derived from TFPI-2] | absent |  | 
3 | NANNFYTWEAC [SEQ ID NO: 7, peptide derived from TFPI-2] |  | partially inhibited | 
4 | NNAEICLLPLDYGP [SEQ ID NO: 5, peptide derived from TFPI-2] | absent |  | 
5 | NNFYTWEACDDACW [SEQ ID NO: 2, peptide derived from TFPI-2] |  | partially inhibited | 
6 | B1 |  |  | D-Dimer level compared with control group (PBS) (coagulation activation): increased; IL-6 level compared with control group (coagulation activation): did not increase; TAT level compared with control group (PBS) (coagulation activation): increased
